How the values were obtained:
Type in all cases: in vivo
[1] = tested on: barnyardgrass (Echinochloa crus-galli); experiment: Test A postemergence; conditions: 0 to 100 scale
Description: (§1) Seeds of plant species selected from barnyardgrass (Echinochloa crus-galli), kochia (Kochia scoparia), ragweed (common ragweed, Ambrosia elatior), Italian ryegrass (Lolium multiflorum), large (Lg) crabgrass (Digitaria sanguinalis), giant foxtail (Setaria faberii), morningglory (Ipomoea spp.), pigweed (Amaranthus retroflexus), velvetleaf (Abutilon theophrasti), wheat (Triticum aestivum), and corn (Zea mays) were planted into a blend of loam soil and sand and treated preemergence with a directed soil spray using test chemicals formulated in a non-phytotoxic solvent mixture which included a surfactant.
(§2) At the same time, plants selected from these crop and weed species and also blackgrass (Alopecurus myosuroides), and galium (catchweed bedstraw, Galium aparine) were planted in pots containing the same blend of loam soil and sand and treated with postemergence applications of test chemicals formulated in the same manner. Plants ranged in height from 2 to 10 cm and were in the one- to two-leaf stage for the postemergence treatment. Treated plants and untreated controls were maintained in a greenhouse for approximately 10 days, after which time all treated plants were compared to untreated controls and visually evaluated for injury. Plant response ratings, summarized in Table A, are based on a 0 to 100 scale where 0 is no effect and 100 is complete control. A dash (-) response means no test result.

[2] = tested on: blackgrass (Alopecurus myosuroides); experiment: Test A postemergence; conditions: 0 to 100 scale
Description: as §1, §2

[3] = tested on: ragweed (common ragweed, Ambrosia elatior); experiment: Test A postemergence; conditions: 0 to 100 scale
Description: as §1, §2

[4] = tested on: wheat (Triticum aestivum); experiment: Test A postemergence; conditions: 0 to 100 scale
Description: as §1, §2

[5] = tested on: kochia (Kochia scoparia); experiment: Test A postemergence; conditions: 0 to 100 scale
Description: as §1, §2

[6] = tested on: corn (Zea mays); experiment: Test A postemergence; conditions: 0 to 100 scale
Description: as §1, §2

[7] = tested on: Italian ryegrass (Lolium multiflorum); experiment: Test A postemergence; conditions: 0 to 100 scale
Description: as §1, §2

[8] = tested on: galium (catchweed bedstraw, Galium aparine); experiment: Test A postemergence; conditions: 0 to 100 scale
Description: as §1, §2

[9] = tested on: giant foxtail (Setaria faberii); experiment: Test A postemergence; conditions: 0 to 100 scale
Description: as §1, §2

[10] = tested on: pigweed (Amaranthus retroflexus); experiment: Test A postemergence; conditions: 0 to 100 scale
Description: as §1, §2

[11] = tested on: barnyardgrass (Echinochloa crus-galli); experiment: Test A preemergence; conditions: for Barnyardgrass plant response rating: 0 to 100 scale (0 no effect, 100 complete control); for Plant response rating, Barnyardgrass: 0 to 100 scale
Description: as §1, §2

[12] = tested on: ragweed (common ragweed, Ambrosia elatior); experiment: Test A preemergence; conditions: 0 to 100 scale (0 no effect, 100 complete control)
Description: as §1, §2

[13] = tested on: kochia (Kochia scoparia); experiment: Test A preemergence; conditions: 0 to 100 scale (0 no effect, 100 complete control)
Description: as §1, §2

[14] = tested on: Italian ryegrass (Lolium multiflorum); experiment: Test A preemergence; conditions: 0 to 100 scale (0 no effect, 100 complete control)
Description: as §1, §2

[15] = tested on: giant foxtail (Setaria faberii); experiment: Test A preemergence; conditions: 0 to 100 scale (0 no effect, 100 complete control)
Description: as §1, §2

[16] = tested on: pigweed (Amaranthus retroflexus); experiment: Test A preemergence; conditions: 0 to 100 scale (0 no effect, 100 complete control)
Description: as §1, §2

[17] = tested on: barnyardgrass (Echinochloa crus-galli); experiment: Test B flooded paddy; conditions: 250 g ai/ha, Flood, 13 to 15 days, scale 0 (no effect) to 100 (complete control)
Description: (§3) At time of treatment, test pots were flooded to 3 cm above the soil surface, treated by application of test compounds directly to the paddy water, and then maintained at that water depth for the duration of the test. Treated plants and controls were maintained in a greenhouse for 13 to 15 days, after which time all species were compared to controls and visually evaluated. […] A dash (-) response means no test result.

[18] = tested on: rice (Oryza sativa); experiment: Test B flooded paddy; conditions: 250 g ai/ha, Flood, 13 to 15 days, scale 0 (no effect) to 100 (complete control)
Description: as §3

[19] = tested on: sedge, umbrella (small-flower umbrella sedge, Cyperus difformis); experiment: Test B flooded paddy; conditions: 250 g ai/ha, Flood, 13 to 15 days, scale 0 (no effect) to 100 (complete control)
Description: as §3

[20] = tested on: ducksalad (Heteranthera limosa); experiment: Test B flooded paddy; conditions: 250 g ai/ha, Flood, 13 to 15 days, scale 0 (no effect) to 100 (complete control)
Description: as §3

| SMILES | Plant response rating, Barnyardgrass ([1]; 31 g ai/ha) | Plant response rating, Barnyardgrass ([1]; 125 g ai/ha) | Plant response rating, Blackgrass ([2]; 31 g ai/ha) | Plant response rating, Blackgrass ([2]; 125 g ai/ha) | Plant response rating, Ragweed ([3]; 31 g ai/ha) | Plant response rating, Ragweed ([3]; 125 g ai/ha) | Plant response rating, Wheat ([4]; 31 g ai/ha) | Plant response rating, Wheat ([4]; 125 g ai/ha) | Plant response rating, Kochia ([5]; 31 g ai/ha) | Plant response rating, Kochia ([5]; 125 g ai/ha) | Plant response rating, Corn ([6]; 31 g ai/ha) | Plant response rating, Corn ([6]; 125 g ai/ha) | Plant response rating, Ryegrass, Italian ([7]; 31 g ai/ha) | Plant response rating, Ryegrass, Italian ([7]; 125 g ai/ha) | Plant response rating, Galium ([8]; 31 g ai/ha) | Plant response rating, Galium ([8]; 125 g ai/ha) | Plant response rating, Foxtail, Giant ([9]; 31 g ai/ha) | Plant response rating, Foxtail, Giant ([9]; 125 g ai/ha) | Plant response rating, Pigweed ([10]; 31 g ai/ha) | Plant response rating, Pigweed ([10]; 125 g ai/ha) | further results |
| --- | --- | --- | --- | --- | --- | --- | --- | --- | --- | --- | --- | --- | --- | --- | --- | --- | --- | --- | --- | --- | --- |
| N#Cc1cccc(Oc2ncc(Cl)cn2)c1Oc1ccc(C(F)(F)F)nn1 [Compound 26] | 0 | 20 | 0 | 30 | 30 | 30 | 0 | 10 | 40 | 60 | 0 | 20 | 0 | 0 | 30 | 50 | 10 | 30 | 50 | 80 | Barnyardgrass plant response rating ([11]; 31 g ai/ha): 0; Plant response rating, Barnyardgrass ([11]; 125 g ai/ha): 20; Ragweed plant response rating ([12]; 31 g ai/ha): 0; Ragweed plant response rating ([12]; 125 g ai/ha): 20; Kochia plant response rating ([13]; 31 g ai/ha): 20; Kochia plant response rating ([13]; 125 g ai/ha): 30; Ryegrass, Italian plant response rating ([14]; 31 g ai/ha): 0; Ryegrass, Italian plant response rating ([14]; 125 g ai/ha): 0; Foxtail, Giant plant response rating ([15]; 31 g ai/ha): 20; Foxtail, Giant plant response rating ([15]; 125 g ai/ha): 60; Pigweed plant response rating ([16]; 31 g ai/ha): 90; Pigweed plant response rating ([16]; 125 g ai/ha): 100; Plant response rating, Barnyardgrass [17]: 0; Plant response rating, Rice [18]: 0; Plant response rating, Sedge, Umbrella [19]: 60; Plant response rating, Ducksalad [20]: 70 |
| Fc1ccc(F)c(Oc2ncc(C(F)(F)F)cn2)c1Oc1ncc(C(F)(F)F)cn1 [Compound 30] | 0 | 0 | 0 | 30 | 0 | 0 | 0 | 0 | 0 | 0 | 0 | 0 | 0 | 0 | 60 | 70 | 0 | 10 | 60 | 70 | Barnyardgrass plant response rating ([11]; 31 g ai/ha): 0; Plant response rating, Barnyardgrass ([11]; 125 g ai/ha): 10; Ragweed plant response rating ([12]; 31 g ai/ha): 0; Ragweed plant response rating ([12]; 125 g ai/ha): 0; Kochia plant response rating ([13]; 31 g ai/ha): 10; Kochia plant response rating ([13]; 125 g ai/ha): 20; Ryegrass, Italian plant response rating ([14]; 31 g ai/ha): 0; Ryegrass, Italian plant response rating ([14]; 125 g ai/ha): 0; Foxtail, Giant plant response rating ([15]; 31 g ai/ha): 10; Foxtail, Giant plant response rating ([15]; 125 g ai/ha): 50; Pigweed plant response rating ([16]; 31 g ai/ha): 90; Pigweed plant response rating ([16]; 125 g ai/ha): 100; Plant response rating, Barnyardgrass [17]: 0; Plant response rating, Rice [18]: 0; Plant response rating, Sedge, Umbrella [19]: 0; Plant response rating, Ducksalad [20]: 0 |
| N#Cc1cccc(Oc2ncc(Cl)cn2)c1Oc1ccc(OC(F)(F)F)cc1 [Compound 33] | 0 | 10 | 0 | 10 | 0 | 10 | 0 | 0 | 20 | 40 | 0 | 10 | 0 | 10 | 10 | 30 | 10 | 20 | 30 | 80 | Barnyardgrass plant response rating ([11]; 31 g ai/ha): 0; Plant response rating, Barnyardgrass ([11]; 125 g ai/ha): 10; Ragweed plant response rating ([12]; 31 g ai/ha): 0; Ragweed plant response rating ([12]; 125 g ai/ha): 0; Kochia plant response rating ([13]; 31 g ai/ha): 0; Kochia plant response rating ([13]; 125 g ai/ha): 0; Ryegrass, Italian plant response rating ([14]; 31 g ai/ha): 0; Ryegrass, Italian plant response rating ([14]; 125 g ai/ha): 0; Foxtail, Giant plant response rating ([15]; 31 g ai/ha): 10; Foxtail, Giant plant response rating ([15]; 125 g ai/ha): 40; Pigweed plant response rating ([16]; 31 g ai/ha): 0; Pigweed plant response rating ([16]; 125 g ai/ha): 30; Plant response rating, Barnyardgrass [17]: 0; Plant response rating, Rice [18]: 0; Plant response rating, Sedge, Umbrella [19]: 0; Plant response rating, Ducksalad [20]: 0 |
| N#Cc1cccc(Oc2ncc(C(F)(F)F)cn2)c1Oc1ncc(C(F)(F)F)cn1 [Compound 35] | 0 | 40 | 10 | 50 | 10 | 20 | 0 | 0 | 60 | 90 | 0 | 30 | 0 | 30 | 40 | 70 | 0 | 20 | 70 | 100 | Barnyardgrass plant response rating ([11]; 31 g ai/ha): 0; Plant response rating, Barnyardgrass ([11]; 125 g ai/ha): 50; Ragweed plant response rating ([12]; 31 g ai/ha): 0; Ragweed plant response rating ([12]; 125 g ai/ha): 10; Kochia plant response rating ([13]; 31 g ai/ha): 0; Kochia plant response rating ([13]; 125 g ai/ha): 60; Ryegrass, Italian plant response rating ([14]; 31 g ai/ha): 0; Ryegrass, Italian plant response rating ([14]; 125 g ai/ha): 10; Foxtail, Giant plant response rating ([15]; 31 g ai/ha): 30; Foxtail, Giant plant response rating ([15]; 125 g ai/ha): 90; Pigweed plant response rating ([16]; 31 g ai/ha): 100; Pigweed plant response rating ([16]; 125 g ai/ha): 100; Plant response rating, Barnyardgrass [17]: 0; Plant response rating, Rice [18]: 40; Plant response rating, Sedge, Umbrella [19]: 60; Plant response rating, Ducksalad [20]: 60 |
| Fc1ccc(Oc2ccc(C(F)(F)F)cn2)c(Oc2ncc(Cl)cn2)c1 [Compound 45, 5-chloro-2-[5-fluoro-[2-[5-(trifluoromethyl)pyridin-2-yl]oxy]phenoxy]pyrimidine] | 0 | 0 | 0 | 30 | 0 | 20 | 0 | 20 | 20 | 80 | 0 | 30 | 0 | 0 | 60 | 70 | 0 | 0 | 20 | 20 | Barnyardgrass plant response rating ([11]; 31 g ai/ha): 0; Barnyardgrass plant response rating ([11]; 125 g ai/ha): 30; Ragweed plant response rating ([12]; 31 g ai/ha): 0; Ragweed plant response rating ([12]; 125 g ai/ha): 10; Kochia plant response rating ([13]; 31 g ai/ha): 0; Kochia plant response rating ([13]; 125 g ai/ha): 10; Ryegrass, Italian plant response rating ([14]; 31 g ai/ha): 0; Ryegrass, Italian plant response rating ([14]; 125 g ai/ha): 0; Foxtail, Giant plant response rating ([15]; 31 g ai/ha): 30; Foxtail, Giant plant response rating ([15]; 125 g ai/ha): 100; Pigweed plant response rating ([16]; 31 g ai/ha): 0; Pigweed plant response rating ([16]; 125 g ai/ha): 0; Plant response rating, Barnyardgrass [17]: 0; Plant response rating, Rice [18]: 0; Plant response rating, Sedge, Umbrella [19]: 70; Plant response rating, Ducksalad [20]: 75 |

Source: patent US20170190671A1, “BIS(ARYL)CATECHOL DERIVATIVES AS HERBICIDES” (E I DU PONT DE NEMOURS AND COMPANY, priority 2014, published 2017)
